Data published in patent US20220331322A1, “COMPOUND FOR INHIBITING CELL DEATH” (Christian-Albrechts-Universität zu Kiel, priority 2019, published 2022).

Legend:
TNF-α-induced complex I = assay: Immunoprecipitation of TNF-α-induced complex I after TSZ, RIPK1 western blot; type: cell-based, human; details: U937, TSZ (100 ng/ml Fc-TNF-α + 1 μM SM164 + 25 μM zVAD), 1 mM primidone
Procedure: It was tested whether primidone interferes with binding of TNF-α to its corresponding receptor TNFR1. To induce cell death, human U937 cells were treated in the absence (vehicle) or presence of 1 mM primidone with 100 ng/ml Fc-tagged TNF-α+1 μM SMAC mimetic SM164+25 μM zVAD (TSZ) for different time periods, followed by immunopurification of the immunoprecipitated TNF-α-induced complex I using μMACS™ protein A/G microbeads, and western blot analysis using a specific RIPK1 antibody.

RIPK1 = target: T1, RIPK1 (Homo sapiens, UniProt Q13546); assay: KINOMEscan profiling kinase assay
T1 sequence (Q13546 1-671): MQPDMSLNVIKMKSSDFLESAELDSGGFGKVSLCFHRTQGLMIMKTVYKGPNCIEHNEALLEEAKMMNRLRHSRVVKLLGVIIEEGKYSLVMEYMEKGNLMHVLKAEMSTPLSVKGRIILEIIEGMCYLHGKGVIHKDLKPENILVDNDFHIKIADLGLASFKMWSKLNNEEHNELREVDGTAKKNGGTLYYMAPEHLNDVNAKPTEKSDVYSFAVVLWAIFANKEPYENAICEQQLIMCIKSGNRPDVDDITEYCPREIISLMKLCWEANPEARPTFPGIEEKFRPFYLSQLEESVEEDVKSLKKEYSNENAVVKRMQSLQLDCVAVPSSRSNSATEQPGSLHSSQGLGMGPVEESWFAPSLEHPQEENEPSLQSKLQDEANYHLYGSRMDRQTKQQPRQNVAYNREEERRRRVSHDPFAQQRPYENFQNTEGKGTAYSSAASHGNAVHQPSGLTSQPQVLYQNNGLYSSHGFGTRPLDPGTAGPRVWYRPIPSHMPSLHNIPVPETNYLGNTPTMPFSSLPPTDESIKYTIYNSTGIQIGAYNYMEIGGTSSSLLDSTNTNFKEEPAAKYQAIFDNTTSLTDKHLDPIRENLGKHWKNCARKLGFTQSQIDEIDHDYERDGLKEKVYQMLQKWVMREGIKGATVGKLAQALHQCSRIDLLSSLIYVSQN
Procedure: To clarify, a KINOMEscan™ profiling kinase assay was performed. […] Dissociation constants (Kd) for test compound-kinase interactions are calculated by measuring the amount of kinase captured on the solid support as a function of the test compound concentration.

NF-κB = assay: Western blot of NF-κB activation (p-NF-κB) after TZ stimulation; type: cell-based, murine; details: L929, 100 ng/ml TNF-α + 25 μM zVAD (TZ), 1 mM primidone
Procedure: It was then analyzed whether primidone interferes with the canonical NF-κB signaling pathway which drives the expression of pro-survival molecules. The binding of TNF-α to its corresponding receptor (TNFR1) initially results in the activation of the NF-κB signaling pathway. In this early phase of TNF activation, the cells are protected from cell death by the presence of a membrane-bound complex known as complex I which is formed within seconds after engagement of TNFR1 by TNF-α. This complex induces the expression of pro-survival molecules via activation of the canonical NF-κB pathway. As the default response of most cells to TNF-α is survival and NF-κB-mediated upregulation of pro-survival genes, it was analyzed whether primidone functions in a survival-signaling mode and thus indirectly prevents cell death signaling. For this purpose, murine L929 cells were stimulated at 37° C. for different time periods (as indicated) with 100 ng/ml TNF-α+25 μM zVAD (TZ) in the absence (vehicle) or presence of 1 mM primidone. Subsequently, a Western blot analysis of the cell lysates using a specific p-NF-κB antibody was performed.

L929 cells [1] = assay: Time profile of blocking TZ-induced necroptosis, FACS (7-AAD/Annexin V); type: cell-based, murine; details: L929, 10 ng/ml TNF-α + 25 μM zVAD (TZ), 24 h; primidone 1 mM, Nec-1s 25 μM; one representative experiment of three
Procedure: The time profile of primidone for blocking cell death was compared to the one of Nec-1s. For this purpose, murine L929 cells were stimulated at 37° C. for 24 h with 10 ng/ml TNF-α+25 μM zVAD (TZ) in the presence of 1 mM primidone and 25 μM Nec-1s, respectively, for the indicated durations. Nec-1s and primidone were added 30 min before, 60 min and 180 min after the induction of RIPK1-mediated necroptosis, respectively. Cell death was quantified by FACS analysis using 7-amino-actinomycin D and phosphatidylserine accessibility (Annexin V staining) as markers.

L929 cells [2] = assay: Stimulation assay: TNF-α + 5Z-7 (± zVAD) induced RIPK1-dependent apoptosis/necroptosis; type: cell-based, murine; details: primidone 1 mM, Nec-1s 20 μM
Procedure: Murine fibroblasts (L929 cells) were stimulated for 24 h at 37° C. in the presence of (a) vehicle, (b) 10 ng/ml tumor necrosis factor alpha (TNF-α), (c) 1 μM 5Z-7-oxozeaenol (5Z-7), (d) a combination of 10 ng/ml TNF-α and 1 μM 5Z-7, (e) a combination of 10 ng/ml TNF-α, 1 μM 5Z-7, and 20 μM necrostatin-1 (Nec-1s), (f) a combination of 10 ng/ml TNF-α, 1 μM 5Z-7, and 1 mM primidone (primidone is referred to in the Figures as compound A), (g) a combination of 10 ng/ml TNF-α, 1 μM 5Z-7, and 25 μM zVAD, (h) a combination of 10 ng/ml TNF-α, 1 μM 5Z-7, and 20 μM Nec-1s, and (i) a combination of 10 ng/ml TNF-α, 1 μM 5Z-7, 25 μM zVAD, and 1 mM primidone. TNF-α is a pro-inflammatory cytokine which triggers cell survival (canonical pathway) or cell death, depending on the cellular context. 5Z-7-oxozeaenol (5Z-7) is an inhibitor of transforming growth factor activated kinase 1 (TAK1). TAK1 is an intermediate in the signaling pathway of the TNF-receptor type 1 (TNFR1), and it is known that TAK1 is essential for the prevention of TNF-induced cell death. Cells in which TAK1 is disrupted or otherwise blocked are hypersensitive to TNF-α-induced cell death due to diminished prosurvival pathways including NF-κB and reduced antioxidant enzymes which results in activation of caspases. The compound zVAD is a pan-caspase inhibitor.

CCC1(c2ccccc2)C(=O)NCNC1=O [primidone, 5-Ethyl-5-phenyl-1,3-diazinane-4,6-dione]
TNF-α-induced formation of complex I (RIPK1 binding to TNFR1) (TNF-α-induced complex I): not influenced
Binding to RIPK1 kinase domain (prevention of kinase binding to immobilized ligand) (RIPK1): does not inhibit RIPK1 by binding directly to its kinase domain
Activation (phosphorylation) of NF-κB (NF-κB): Activation (phosphorylation) of NF-κB was detected
Cells still alive, compound added 60 min after induction of cell death (L929 cells [1]): 92.7%
Cells still alive, compound added 3 hours after induction of cell death (L929 cells [1]): 58.6%
Block of RIPK1-dependent necroptosis (L929 cells [2]; L929, 10 ng/ml TNF-α + 1 μM 5Z-7 + 25 μM zVAD, 24 h): able to block
Block of RIPK1-dependent apoptosis (RDA) (L929 cells [2]; L929, 10 ng/ml TNF-α + 1 μM 5Z-7, 24 h, zVAD 25 μM): could also be blocked
